In patent US12331033B2, “Inhibitors of SARM1” (Disarm Therapeutics, Inc., priority 2020, dated 2025):

Target: SARM1 (ARM-SAM-TIR) (Homo sapiens (Human), UniProt Q6SZW1)
Test: ARM-SAM-TIR SARM1 IC50 assay (NADase activity, NAD+ cleavage, RapidFire MS)
Type: biochemical
Settings: ARM-SAM-TIR lysate 5 μg/mL, 2 h pre-incubation, 5 μM NAD+, 2 hr room temperature
Procedure, shortened: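 Lysate of NRK1-HEK293T cells transfected with full-length ARM-SAM-TIR SARM1 (5 μg/mL final) pre-incubated with compound (1% DMSO) 2 h at room temperature in Dulbecco's PBS. Reaction started with 5 μM NAD+, run 2 hr at room temperature, then stopped with TCA/acetonitrile. NAD+ and ADPR quantified by RapidFire MS.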

SARM1 (ARM-SAM-TIR), sequence (Q6SZW1 other isoform, or with tags, fused parts or gaps): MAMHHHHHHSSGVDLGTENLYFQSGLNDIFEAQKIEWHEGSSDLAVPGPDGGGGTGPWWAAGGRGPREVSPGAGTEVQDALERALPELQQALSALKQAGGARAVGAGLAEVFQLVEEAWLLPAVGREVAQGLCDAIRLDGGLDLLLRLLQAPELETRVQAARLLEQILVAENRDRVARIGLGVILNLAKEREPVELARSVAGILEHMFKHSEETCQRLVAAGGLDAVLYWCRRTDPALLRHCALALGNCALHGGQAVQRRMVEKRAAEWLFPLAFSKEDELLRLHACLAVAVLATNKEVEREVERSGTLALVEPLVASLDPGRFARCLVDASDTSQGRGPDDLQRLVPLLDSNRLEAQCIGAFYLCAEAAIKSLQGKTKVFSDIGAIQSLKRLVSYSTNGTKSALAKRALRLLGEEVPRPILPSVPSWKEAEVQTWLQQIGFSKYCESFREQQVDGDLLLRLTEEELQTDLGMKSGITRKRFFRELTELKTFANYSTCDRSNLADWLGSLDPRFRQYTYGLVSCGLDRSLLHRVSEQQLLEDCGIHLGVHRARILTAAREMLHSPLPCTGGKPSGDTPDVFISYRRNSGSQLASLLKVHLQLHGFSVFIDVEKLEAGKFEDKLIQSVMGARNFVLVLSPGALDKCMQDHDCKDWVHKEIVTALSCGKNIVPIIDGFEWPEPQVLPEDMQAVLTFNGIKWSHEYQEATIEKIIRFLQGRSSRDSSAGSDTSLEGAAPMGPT

| Structure (SMILES) | IC50 [µM] |
| --- | --- |
| O=C(CCc1ccc(Cl)cc1)Nc1nc(-c2ccncc2)ns1 [Example 61] | < 5 |
| N#Cc1c(-c2ccncc2)n[nH]c1NC(=O)CCc1ccc(Cl)cc1 [Example 186] | < 5 |
| Cc1c(-c2ccncc2)n[nH]c1NC(=O)c1ccc(OC2CCC2)cc1 [Example 255] | 5 to 15 |
| O=C(CCc1ccc(Cl)cc1)Nc1nnc(-c2ccncc2Cl)[nH]1 [Example 59] | < 5 |
| O=C(CCc1ccc(C(F)(F)F)cc1)Nc1cc(-c2ccnnc2)n[nH]1 [Example 30] | < 5 |
| Cn1nc(NC(=O)CCc2ccccc2)nc1-c1ccncc1 [Example 111] | > 30 |
| O=C(CC1CCCc2ccccc21)Nc1nnc(-c2ccncc2)[nH]1 (stereo not shown) [Example 132] | < 5 |
| Cc1ccc(OCC(=O)Nc2nnc(-c3ccncc3)[nH]2)c(C)c1 [Example 149] | 15 to 30 |
| O=C(C[C@H]1CCOc2cc(Cl)ccc21)Nc1cc(-c2ccncc2)n[nH]1 [Example 212] | < 5 |
| O=C(C[C@H]1CCOc2cc(Cl)ncc21)Nc1nnc(-c2ccncc2)[nH]1 [Example 235] | 5 to 15 |
| O=C(CCc1ccc(C(F)F)cc1)Nc1nnc(-c2ccncc2)[nH]1 [Example 97] | < 5 |
| O=C(C[C@@H]1CCOc2cc(Cl)ccc21)Nc1nnc(-c2ccncc2)[nH]1 [Example 209] | < 5 |
| O=C(CCc1ccc(F)cc1)Nc1nnc(-c2ccncc2)[nH]1 [Example 125] | < 5 |
| [2H]C([2H])(C(=O)Nc1[nH]nc(-c2ccnnc2)c1C)C([2H])([2H])c1ccc(Cl)nc1 [Example 178] | < 5 |
| O=C(CCc1ccc(Cl)cc1)Nc1nnc(-c2ccns2)[nH]1 [Example 157] | < 5 |
| O=C(Nc1nnc(-c2ccncc2)[nH]1)[C@@H]1CCc2ccccc2C1 [Example 89] | 5 to 15 |
